Each compound was assayed on IL-1β production in PMA-differentiated THP-1 cells (assay: IL-1β production in PMA-differentiated THP-1 cells stimulated with gramicidin (hTHP-1 assay, HTRF readout; Procedures 1-3)). Details: Homo sapiens, THP-1, hTHP-1 assay containing 2% fetal bovine serum; average; class symbols; read-out: hTHP-1 IC50 (Average IC50 of compounds in hTHP-1 assay).
Type: cell-based, human
Summary of the method: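 PMA-differentiated (20 ng/ml, 16-18 h) THP-1 cells in RPMI with 2% FBS, 50,000 cells/well, preincubated 1 h with compound (final 0.0017-100 μM, 0.37% DMSO), then stimulated with 5 μM gramicidin for 2 h. IL-1β in cell-free supernatant measured by HTRF (620/668 nm).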
Compound `CC(C)(O)c1ccc(F)c(S(N)(=O)=NC(=O)Nc2c3c(c(F)c4c2CCC4)CCC3)c1` (stereo not shown) [Example 55, 2-fluoro-N′-((8-fluoro-1,2,3,5,6,7-hexahydro-s-indacen-4-yl)carbamoyl)-5-(2-hydroxypropan-2-yl)benzenesulfonimidamide] has an IC50 of 200 to 1000 nM.
Work on `CC(C)c1cc(C#N)cc(C(C)C)c1NC(=O)N=S(N)(=O)c1sc(C(C)(C)O)nc1CO` (single isomer, unassigned) [Example 192, (S)- or (R)-N′-((4-cyano-2,6-diisopropylphenyl)carbamoyl)-4-(hydroxymethyl)-2-(2-hydroxypropan-2-yl)thiazole-5-sulfonimidamide] yielded an IC50 of 200 to 1000 nM.
`C=CCN(C)Cc1ccc(S(N)(=O)=NC(=O)Nc2c3c(cc4c2CCC4)CCC3)cc1` (stereo not shown) [Example 238, 4-((Allyl(methyl)amino)methyl)-N′-(1,2,3,5,6,7-hexahydro-s-indacen-4-ylcarbamoyl)benzenesulfonimidamide] gave an IC50 of 1000 to 5000 nM.
For `CN(Cc1ccc(S(N)(=O)=NC(=O)Nc2c3c(cc4c2CCC4)CCC3)cc1)CC1CC1` (stereo not shown) [Example 240, 4-(((Cyclopropyl-methyl)(methyl)amino)methyl)-N′-(1,2,3,5,6,7-hexahydro-s-indacen-4-ylcarbamoyl)benzenesulfonimidamide], the IC50 was 1000 to 5000 nM.
Compound `Cc1cc(C(C)(C)O)sc1S(N)(=O)=NC(=O)Nc1c(C(C)C)cc(OC(F)F)cc1C(C)C` (stereo not shown) [Example 24, N′-(4-(difluoromethoxy)-2,6-diisopropylphenylcarbamoyl)-5-(2-hydroxypropan-2-yl)-3-methylthiophene-2-sulfonimidamide] has an IC50 of 1000 to 5000 nM.

Same assay, conditions: Homo sapiens, THP-1, hTHP-1 assay containing 2% fetal bovine serum; average; given as bound; read-out: hTHP-1 IC50 (Average IC50 of compounds in hTHP-1 assay)
For `CC(C)c1cc(C#N)cc(C(C)C)c1NC(=O)N=S(N)(=O)c1ccc(C(C)(C)O)c(CO)c1` (single isomer, unassigned) [Example 189, (R)- or (S)-N′-((4-cyano-2,6-diisopropylphoxyproyl)-3-(hydroxymethyl)-4-(2-hydroxypropan-2-yl)benzenesulfonimidamide], the IC50 was over 30000 nM.
`CNS(=O)(=NC(=O)Nc1c2c(cc3c1CCC3)CCC2)c1ccc(CN(C)C)cc1` (single isomer, unassigned) [Example 383, (R) or (S)-4-((dimethylamino)methyl)-N′-((1,2,3,5,6,7-hexahydro-s-indacen-4-yl)carbamoyl)-N-methylbenzene-sulfonimidamide] gave an IC50 of over 30000 nM.
Compound `CC(C)c1cc(-c2ccccc2CO)cc(C(C)C)c1NC(=O)N=S(N)(=O)c1ccc(CN(C)C)cc1` (stereo not shown) [Compound 249] has an IC50 of over 30000 nM.
`CN(Cc1ccc(S(N)(=O)=NC(=O)Nc2c3c(cc4c2CCC4)CCC3)cc1)C(=O)CCC(=O)O` (stereo not shown) [Example 252] was tested, and the IC50 was over 30000 nM.
For `Cc1cc(C(C)(C)O)ccc1S(N)(=O)=NC(=O)Nc1c(C(C)C)cc(OC(F)F)cc1C1CC1` (single isomer, unassigned) [Example 120, (R)- or (S)-N′-(2-cyclopropyl-4-(difluoromethoxy)-6-isopropylphenylcar-bamoyl)-4-(2-hydroxypropan-2-yl)-2-methylbenzenesulfonimidamidc], the IC50 was over 30000 nM.
`Cc1nn(C)cc1S(N)(=O)=NC(=O)Nc1c(C(C)C)cc(F)cc1C(C)C` (stereo not shown) [Example 209, N′-((4-fluoro-2,6-diisopropylphenyl)carbamoyl)-1,3-dimethyl-1H-pyrazole-4-sulfonimidamide] showed an IC50 of over 30000 nM.

Same assay, conditions: hTHP-1 assay containing 2% fetal bovine serum; average; class symbols; read-out: hTHP-1 IC50 (Average IC50 of compounds in hTHP-1 assay)
Compound `CC(C)(O)c1ncc(S(N)(=O)=NC(=O)Nc2c3c(cc4c2C(O)CC4)CCC3)s1` (single isomer, unassigned) [Example 392, (R, S) or (R, R) or (S, R) or (S, S)-N′-((3-hydroxy- *1,2,3,5,6,7-hexahydro-s-indacen-4-yl)carbamoyl)-2-(2-hydroxypropan-2-yl)thiazole-5-sulfonimidamide] has an IC50 of 200 to 1000 nM.

Source: patent US10654816B2, “Compounds and compositions for treating conditions associated with NLRP activity” (NOVARTIS INFLAMMASOME RESEARCH, INC., priority 2017, dated 2020)
